# Measured values taken from PMC12582325 (Proceedings of the National Academy of Sciences of the …, 2025).
# “And” between values parts separate entries of the source, which are not always exact repeats. Equal entries are not always repeated. Where two headings read alike, the source gives them in different places. Where a SMILES comes first, the peptide text is derived from it.
# Columns and labels:
# [1] = tested on: F. oxysporum on tomato roots; test: Tomato root inoculation and fluorescence microscopy of infected roots; type: in vivo, Fusarium oxysporum / Solanum lycopersicum; settings: exogenous addition of pheromone to microconidia; 3 d after inoculation; fluorescence microscopy
# Hj.Hpr2 = type: cell-based, Hypocrea jecorina
# [2] = tested on: no_GPCR (negative control lacking a GPCR); type: cell-based, Saccharomyces cerevisiae; settings: for barcode qPCR of diploids, no_GPCR x pheromone strain: consortium, individual replicates (n=3), listed as Fo.Pheromone
# Fg.Ste2 [3] = type: cell-based, Fusarium graminearum; settings: for Diploid frequency (%): 20 h coculture; for diploid frequency (%) / average (diploid colonies): GPCR strain GEN37 HIS; for average (diploid colonies): dilution 500, mean of Rep1-3
# B. bassiana = type: cell-based, Beauveria bassiana
# Bc.Ste2 [4] = type: cell-based, Botrytis cinerea
# Nc Ste2 GPCR = type: cell-based, Neurospora crassa
# Ca.Ste2 = type: cell-based, Candida albicans
# Fo.Ste2 [5] = test: YeMaP Library-on-One: YPL1 pheromone library enrichment by mating, NGS; type: cell-based, Fusarium oxysporum; settings: YPL1 library cocultured with Fo.Ste2 strain GEN90, 20 h, 2 d diploid enrichment, NextSeq 500
# Hj Ste2 GPCR (Hj.Hpr2) = type: cell-based, Hypocrea jecorina
# Bc.Ste2 [6] = type: cell-based, Botrytis cinerea; settings: YPL1 library cocultured with Bc.Ste2 strain GEN89, 20 h, 2 d diploid enrichment, NextSeq 500
# F. oxysporum germ tubes = settings: gradient of 400 μM pheromone against the solvent (50% methanol); 13 h; water-agar; three biological replicates; Fig. 5A
# Experimental: For the B. bassiana and F. oxysporum chemotropism assay and plant infection assays the pheromones were dissolved in 50% (v/v) MeOH to reach a concentration of 4,000 μM.
# Fungal chemotropism was conducted as previously described ([11]). For each compound or combination of compounds tested, 300 hyphal tips were scored. All experiments were performed in three biological replicates.
# Fg.Ste2 [7] = type: cell-based, Fusarium graminearum
# Fo.Ste2 [8] = type: cell-based, Fusarium oxysporum
smiles,measurement,setting,value
C[C@@H](O)[C@H](NC(=O)[C@H](CS)NC(=O)[C@@H](N)Cc1c[nH]c2ccccc12)C(=O)N[C@@H](Cc1c[nH]c2ccccc12)C(=O)N[C@@H](CCCNC(=N)N)C(=O)NCC(=O)N[C@@H](CCC(N)=O)C(=O)N1CCC[C@H]1C(=O)N[C@@H](CS)C(=O)N[C@@H](Cc1c[nH]c2ccccc12)C(=O)O [Fo] (H-WCTWRGQPCW-OH; N-terminus assumed),Adhesion of F. oxysporum germ tubes among themselves or to tomato roots,[1],increased adhesion
same,"barcode qPCR of diploids, Hj.HPR2 x pheromone strain",Hj.Hpr2,0
same,diploid barcode qPCR signal relative to control (2^-dCt),Hj.Hpr2,0
same,"barcode qPCR of diploids, no_GPCR x pheromone strain",[2]; SC-AS/Urea,0 and 0.004 and 0.005
same,"barcode qPCR of diploids, no_GPCR x pheromone strain",[2]; SC,0 (2×) and 0.007
same,diploid barcode qPCR signal relative to control (2^-dCt),"[2]; section A4, GPCR strain not given, mean of Bio1-3",0.036
same,diploid barcode qPCR signal relative to control (2^-dCt),"[2]; section A4, column EMPTY, replicate Bio1",0.014
same,diploid barcode qPCR signal relative to control (2^-dCt),"[2]; section A4, column EMPTY, replicate Bio2",0.039
same,diploid barcode qPCR signal relative to control (2^-dCt),"[2]; section A4, column EMPTY, replicate Bio3",0.054
same,diploid barcode qPCR signal relative to control (2^-dCt),"[2]; section Cm, GPCR strain not given, mean of Bio1-3",0.002
same,diploid barcode qPCR signal relative to control (2^-dCt),"[2]; section Cm, column EMPTY, replicate Bio1",0.005
same,diploid barcode qPCR signal relative to control (2^-dCt),"[2]; section Cm, column EMPTY, replicate Bio2",0
same,diploid barcode qPCR signal relative to control (2^-dCt),"[2]; section Cm, column EMPTY, replicate Bio3",0
same,diploid barcode qPCR signal relative to control (2^-dCt),"[2]; section SC, GPCR strain not given, mean of Bio1-3",0.0024
same,diploid barcode qPCR signal relative to control (2^-dCt),"[2]; section SC, column EMPTY, replicate Bio1",0
same,diploid barcode qPCR signal relative to control (2^-dCt),"[2]; section SC, column EMPTY, replicate Bio2",0
same,diploid barcode qPCR signal relative to control (2^-dCt),"[2]; section SC, column EMPTY, replicate Bio3",0.007
same,diploid barcode qPCR signal relative to control (2^-dCt),"[2]; section Scramble, GPCR strain not given, mean of Bio1-3",0.0071
same,diploid barcode qPCR signal relative to control (2^-dCt),"[2]; section Scramble, column EMPTY, replicate Bio1",0
same,diploid barcode qPCR signal relative to control (2^-dCt),"[2]; section Scramble, column EMPTY, replicate Bio2",0.015
same,diploid barcode qPCR signal relative to control (2^-dCt),"[2]; section Scramble, column EMPTY, replicate Bio3",0.006
same,Diploid frequency (%),"Fg.Ste2 [3]; Fig. 1D mating matrix, pheromone secreted by MATa strain, GPCR in MATα strain, deep well plate, three technical plating replicates",0.5%
same,Diploid frequency (%),"Fg.Ste2 [3]; Fig. 1F validation in culture tubes, secreted pheromone, three biological and three technical replicates",8.8%
same,diploid frequency (%),Fg.Ste2 [3]; co-culture replicate 1,1.34%
same,average (diploid colonies),Fg.Ste2 [3]; co-culture replicate 1,5.67
same,diploid frequency (%),Fg.Ste2 [3]; co-culture replicate 2,1.11%
same,average (diploid colonies),Fg.Ste2 [3]; co-culture replicate 2,4.67
same,diploid frequency (%),Fg.Ste2 [3]; co-culture replicate 3,0.95%
same,average (diploid colonies),Fg.Ste2 [3]; co-culture replicate 3,4
same,"Chemotropism of spores, group mean",B. bassiana,11.13
same,chem. Index,B. bassiana,14.29 and 11.03 and 8.06
same,Chemotropic response in Bb germ tubes,B. bassiana; 20 hours,significant chemotropic response
same,Fold change yEGFP,Bc.Ste2 [4],1
same,Hillslope,Bc.Ste2 [4],0.5934
same,logEC50,Bc.Ste2 [4],-8.991
same,"Sup.Fig.3A Bc.Ste2 biosensor response, group mean",Bc.Ste2 [4]; 10 μM,1.713
same,Diploid frequency (%),Nc Ste2 GPCR,0.0%
same,Diploid frequency (%),Ca.Ste2,0.0%
same,"Enrichment after mating, reads per million minus library before coculture",Fo.Ste2 [5],"> 340,000 RPM"
same,Diploid frequency (%),Hj Ste2 GPCR (Hj.Hpr2),0.0%
same,"Enrichment after mating, reads per million minus library before coculture",Bc.Ste2 [6],"> 340,000 RPM"
same,Chemotropic response in F. oxysporum germ tubes,F. oxysporum germ tubes,significant chemotropic response
same,Fold change yEGFP,"Fg.Ste2 [7]; Fg.Ste2 biosensor CPK366, 10 μM synthetic alpha pheromone, normalized to yEGFP background (receptor without pheromone), four biological replicates, Fig. 1E",187
same,"Activation of Fg.Ste2 biosensor, in words",Fg.Ste2 [7]; chemically synthesized pheromone,higher EC50 values
same,Fold change yEGFP,Fo.Ste2 [8],236
same,Hillslope,Fo.Ste2 [8],2.574
same,logEC50,Fo.Ste2 [8],-7.534
same,"Sup.Fig.3B Fo.Ste2 biosensor response, group mean",Fo.Ste2 [8]; 0.5 μM,1195000
